Assays:
Assay type in all cases: in vivo
[1] = system: Alopecurus myosuroides (ALOMY); experiment: Test 1A glasshouse assay for herbicidal activity, pre-emergence; details: 312 h, 250 g/ha, evaluated after 13 days, read-out: percentage phytotoxicity ALOMY
Summary of the method: (§1)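 Damage is rated by eye as percent phytotoxicity on a 0–100 scale, 13 days after treatment. Compound is sprayed in acetone/water (50:50) with 0.5% Tween 20 onto pots one day (pre-emergence) or eight days (post-emergence) after sowing, with plants kept at 24/16 °C and 14 h light.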

[2] = system: Amaranthus retroflexus (AMARE); experiment: as above; details: 312 h, 250 g/ha, evaluated after 13 days, read-out: percentage phytotoxicity AMARE
Summary of the method: as §1

[3] = system: Echinochloa crus-galli (ECHCG); experiment: as above; details: 312 h, 250 g/ha, evaluated after 13 days, read-out: percentage phytotoxicity ECHCG
Summary of the method: as §1

[4] = system: Setaria faberi (SETFA); experiment: as above; details: 312 h, 250 g/ha, evaluated after 13 days, read-out: percentage phytotoxicity SETFA
Summary of the method: as §1

[5] = system: Setaria faberi (SETFA); experiment: Test 1A glasshouse assay for herbicidal activity, post-emergence; details: 312 h, evaluated after 13 days, read-out: percentage phytotoxicity SETFA
Summary of the method: as §1

[6] = system: Glycine max (GLXMA, soybean); experiment: Test 1B glasshouse assay for herbicidal activity, pre-emergence; details: 480 h, 20 DAA, read-out: percentage phytotoxicity GLXMA
Procedure: (§2) Seeds of a variety of monocotyledonous and dicotyledonous test plants are sown in standard soil in pots. The plants are cultivated for one day (for pre-emergence) or for about 12 days (range=10-13 days) (for post-emergence) under controlled conditions in a glasshouse (warm climate species at 24/18° C., cool climate species at 20/16° C., both at day/night; 16 hours light; 65% humidity).
(§3) An “instant formulation”, known as the “IF50”, containing 50 g/liter (i.e. 5% w/v) of the “technical” (i.e. unformulated) active ingredient is prepared by dissolving the active ingredient in a mixture of organic solvents and emulsifier, details of which are provided in the Table below. This IF50 is then mixed with a small, variable amount of acetone to aid dissolution, before addition of a 0.2% v/v aqueous solution of the adjuvant X-77 (which is a mixture of alkyl aryl polyoxyethylene glycols and free fatty acids in isopropanol, CAS Registry number 11097-66-8), as the aqueous diluent, to form an aqueous spray solution which contains a predetermined concentration of the active ingredient (which varies depending on the application rate of the active ingredient to the plants) and 0.2% v/v of the adjuvant X-77. This aqueous spray solution is then sprayed onto the plants, after one day's cultivation (for pre-emergence) or after about 12 days' cultivation (for post-emergence).
(§4) The test plants are then grown on, in a glasshouse (greenhouse) under controlled conditions (at either 24/18° C. or 20/16° C. (day/night) as mentioned above; 16 hours light; 65% humidity) and are watered twice daily. Either 15 days after application of the herbicide (15 DAA) (for post-emergence), or 20 days after application of the herbicide (20 DAA) (for pre-emergence), the test plants are evaluated visually, and an assessed percentage phytotoxicity score is given for each herbicidal application on each plant species (where 100%=total damage to plant; 0%=no damage to plant).
(§5) Warm climate crop plants: Glycine max (GLXMA, soybean).

[7] = system: Alopecurus myosuroides (ALOMY); experiment: as above; details: 480 h, 20 DAA, read-out: percentage phytotoxicity ALOMY
Procedure: as §2, §3, §4
(§6) Cool climate (“cool season”) grassy monocotyledonous weeds: Alopecurus myosuroides (ALOMY), Avena fatua (AVEFA), Lolium perenne (LOLPE).

[8] = system: Avena fatua (AVEFA); experiment: as above; details: 480 h, 20 DAA, read-out: percentage phytotoxicity AVEFA
Procedure: as §2, §3, §4, §6

[9] = system: Lolium perenne (LOLPE); experiment: as above; details: 480 h, 20 DAA, read-out: percentage phytotoxicity LOLPE
Procedure: as §2, §3, §4, §6

[10] = system: Glycine max (GLXMA, soybean); experiment: Test 1B glasshouse assay for herbicidal activity, post-emergence; details: 360 h; for plant injury at 60 g/ha: 60 g/ha application rate
Procedure: as §2, §3, §4, §5

[11] = system: Alopecurus myosuroides (ALOMY); experiment: as above; details: 360 h; for pest or weed control at 60 g/ha: 60 g/ha application rate
Procedure: as §2, §3, §4, §6

[12] = system: Avena fatua (AVEFA); experiment: as above; details: 360 h; for pest or weed control at 60 g/ha: 60 g/ha application rate
Procedure: as §2, §3, §4, §6

[13] = system: Lolium perenne (LOLPE); experiment: as above; details: 360 h; for pest or weed control at 60 g/ha: 60 g/ha application rate
Procedure: as §2, §3, §4, §6

[14] = system: Digitaria sanguinalis (DIGSA); experiment: as above; details: 360 h; for pest or weed control at 60 g/ha: 60 g/ha application rate
Procedure: as §2, §3, §4
(§7) Warm climate (“warm season”) grassy monocotyledonous weeds: Setaria faberi (SETFA), SORVU (Sorghum bicolor (L.) Moench ssp. Bicolor, or Sorghum vulgare Pers.), Digitaria sanguinalis (DIGSA), Echinochloa crus-galli (ECHCG), and Brachiaria plantaginea (BRAPL).

[15] = system: SORVU (Sorghum bicolor (L.) Moench ssp. Bicolor, or Sorghum vulgare Pers.); experiment: as above; details: 360 h; for pest or weed control at 60 g/ha: 60 g/ha application rate
Procedure: as §2, §3, §4, §7

[16] = system: Setaria faberi (SETFA); experiment: as above; details: 360 h; for pest or weed control at 60 g/ha: 60 g/ha application rate
Procedure: as §2, §3, §4, §7

[17] = system: Echinochloa crus-galli (ECHCG); experiment: as above; details: Echinochloa crus-galli; for pest or weed control at 60 g/ha: 60 g/ha application rate
Procedure: as §2, §3, §4, §7
Note: The herbicidal activity data (e.g. post-emergence) shown above in Biological Example 1B for Comparator compounds X-9 and X-10 is thought likely to have been measured some years ago, probably using a variant of the above-described test method. Also, for the post-emergence activity of X-9 and X-10 it is not currently known exactly how many days after application of the herbicide the phytotoxicity on the plants was measured.

CC#Cc1cc(C)c(C2C(=O)C3CCC(C3)C2=O)c(C)c1 (stereo not shown) [Compound A-5]
pest or weed control at 250 g/ha [1]: 100% | pest or weed control at 250 g/ha [2]: 0% | pest or weed control at 250 g/ha [3]: 100% | pest or weed control at 250 g/ha [4]: 90% | pest or weed control at 30 g/ha [5]: 70% | pest or weed control at 250 g/ha [5]: 100% | plant injury at 500 g/ha [6]: 0% | pest or weed control at 500 g/ha [7]: 80% | pest or weed control at 500 g/ha [8]: 40% | pest or weed control at 500 g/ha [9]: 100% | plant injury at 30 g/ha ([10]; 30 g/ha application rate): 10% | plant injury at 60 g/ha [10]: 20% | plant injury at 125 g/ha ([10]; 125 g/ha application rate): 30% | plant injury at 500 g/ha ([10]; 500 g/ha application rate): 40% | pest or weed control at 30 g/ha ([11]; 30 g/ha application rate): 70% | pest or weed control at 60 g/ha [11]: 80% | pest or weed control at 125 g/ha ([11]; 125 g/ha application rate): 80% | pest or weed control at 500 g/ha ([11]; 500 g/ha application rate): 90% | pest or weed control at 30 g/ha ([12]; 30 g/ha application rate): 30% | pest or weed control at 60 g/ha [12]: 30% | pest or weed control at 125 g/ha ([12]; 125 g/ha application rate): 80% | pest or weed control at 500 g/ha ([12]; 500 g/ha application rate): 80% | pest or weed control at 30 g/ha ([13]; 30 g/ha application rate): 30% | pest or weed control at 60 g/ha [13]: 70% | pest or weed control at 125 g/ha ([13]; 125 g/ha application rate): 80% | pest or weed control at 500 g/ha ([13]; 500 g/ha application rate): 80% | pest or weed control at 30 g/ha ([14]; 30 g/ha application rate): 90% | pest or weed control at 60 g/ha [14]: 100% | pest or weed control at 125 g/ha ([14]; 125 g/ha application rate): 100% | pest or weed control at 500 g/ha ([14]; 500 g/ha application rate): 100% | pest or weed control at 30 g/ha ([15]; 30 g/ha application rate): 70% | pest or weed control at 60 g/ha [15]: 80% | pest or weed control at 125 g/ha ([15]; 125 g/ha application rate): 100% | pest or weed control at 500 g/ha ([15]; 500 g/ha application rate): 100% | pest or weed control at 30 g/ha ([16]; 30 g/ha application rate): 80% | pest or weed control at 60 g/ha [16]: 90% | pest or weed control at 125 g/ha ([16]; 125 g/ha application rate): 100% | pest or weed control at 500 g/ha ([16]; 500 g/ha application rate): 100% | pest or weed control at 30 g/ha ([17]; 30 g/ha application rate): 100% | pest or weed control at 60 g/ha [17]: 100% | pest or weed control at 125 g/ha ([17]; 125 g/ha application rate): 100% | pest or weed control at 500 g/ha ([17]; 500 g/ha application rate): 100%

CC#Cc1ccc(C2C(=O)C3CCC(C3)C2=O)c(C)c1 (single isomer, unassigned) [Compound A-2]
pest or weed control at 250 g/ha [1]: 90% | pest or weed control at 250 g/ha [2]: 0% | pest or weed control at 250 g/ha [3]: 100% | pest or weed control at 250 g/ha [4]: 70% | pest or weed control at 250 g/ha [5]: 100% | plant injury at 500 g/ha [6]: 0% | pest or weed control at 500 g/ha [7]: 100% | pest or weed control at 500 g/ha [8]: 80% | pest or weed control at 500 g/ha [9]: 100% | plant injury at 60 g/ha [10]: 40% | pest or weed control at 60 g/ha [11]: 90% | pest or weed control at 60 g/ha [12]: 80% | pest or weed control at 60 g/ha [13]: 80% | pest or weed control at 60 g/ha [14]: 100% | pest or weed control at 60 g/ha [15]: 80% | pest or weed control at 60 g/ha [16]: 100% | pest or weed control at 60 g/ha [17]: 100%

CC#Cc1cc(Cl)c(C2C(=O)C3CCC(C)(C2=O)C3(C)C)c(OC)c1 (stereo not shown) [Compound A-17]
pest or weed control at 250 g/ha [1]: 90% | pest or weed control at 250 g/ha [2]: 60% | pest or weed control at 250 g/ha [3]: 100% | pest or weed control at 250 g/ha [4]: 90% | pest or weed control at 250 g/ha [5]: 90% | plant injury at 250 g/ha ([6]; 250 g/ha): 10% | pest or weed control at 250 g/ha ([7]; 250 g/ha): 0% | pest or weed control at 250 g/ha ([8]; 250 g/ha): 60% | pest or weed control at 250 g/ha ([9]; 250 g/ha): 50% | plant injury at 250 g/ha ([10]; 250 g/ha application rate): 10% | pest or weed control at 250 g/ha ([11]; 250 g/ha application rate): 50% | pest or weed control at 250 g/ha ([12]; 250 g/ha application rate): 0% | pest or weed control at 250 g/ha ([13]; 250 g/ha application rate): 20% | pest or weed control at 250 g/ha ([14]; 250 g/ha application rate): 70% | pest or weed control at 250 g/ha ([15]; 250 g/ha application rate): 80% | pest or weed control at 250 g/ha ([16]; 250 g/ha application rate): 80% | pest or weed control at 250 g/ha ([17]; 250 g/ha application rate): 90%

CC#Cc1cc(C)c(C2C(=O)CC(CCSC)CC2=O)c(C)c1 (stereo not shown) [Compound A-21, 2-(2,6-Dimethyl-4-prop-1-ynyl-phenyl)-5-(2-methylsulfanyl-ethyl)cyclohexane-1,3-dione]
pest or weed control at 250 g/ha [1]: 100% | pest or weed control at 250 g/ha [2]: 90% | pest or weed control at 250 g/ha [3]: 100% | pest or weed control at 250 g/ha [4]: 100% | pest or weed control at 30 g/ha [5]: 70% | pest or weed control at 250 g/ha [5]: 100%
